The numbers were not newly measured in patent publication US8114298B2, “Method, device and system for water treatment” (Bromine Compounds Ltd., priority 2006, dated 2012), which cites them from elsewhere.

The conditions of series [1]: at 25° C.
For series [2] the following is noted: bleach; background statement.

Take `O=c1nc([O-])n(Cl)c(=O)n1Cl.[Na+]` [NaDCC, sodium dichloroisocyanurate]: the solubility in water result in series [1] is “up to 24%”. Regarding `OCl` [Sodium Hypochlorite], in series [2], the shelf life is recorded as 3-6 months.
